Laboratory results taken from US20220289732A1, “HETEROCYCLIC WDR5 INHIBITORS AS ANTI-CANCER COMPOUNDS” (NOVARTIS AG, priority 2019, published 2022).

Assays:
WDR5 = WDR5 (Homo sapiens, UniProt P61964); assay: WDR5 HTRF binding assay; conditions: read-out: (a) WDR5 HTRF Pep Val v.1[Inhibitor/IC50]Qualified AC50
In short: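 In this HTRF displacement format, biotinylated MLL1 WIN peptide (3762-3773, 20 nM) binds WDR5 (6 nM) in 25 mM Hepes pH 7.5 with 100 mM NaCl, 2 mM DTT and 0.1% BSA for 20 min at rt. Detection used streptavidin-APC/anti-His-Eu for 1 hr. IC50 came from dose-response fits of normalized signal; 15 nM biotin-PEG-His peptide served as counter assay.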

[1] = biological target: wild type MLL1 four-member complex (MLL1-4C) (Homo sapiens, UniProt P61964); assay: MLL1 LC-MS assay (SAH production); format: biochemical; conditions: read-out: (b) MLL LCMS Peptide Val.v.1 Qualified AC50
In short: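 SAH formation, measured by LC-MS/MS after a TFA quench containing d4-SAH, was normalised to no-compound and no-enzyme controls and fitted to a dose-response curve for IC50. Reactions ran 120 min at rt (pH 8.0 Tris buffer) with final 30 nM MLL1 four-member complex, 2.5 μM SAM and 10 μM biotinylated H3[1-21] peptide, after a 20-min enzyme/SAM-compound preincubation.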

MV4-11 cells = assay: MV4-11 6-day cell growth CTG (CellTiter-Glo) assay; format: cell-based; conditions: Homo sapiens, MV4-11, 144 h, 6 days, read-out: (c) MLL/WDR5 cell proliferation assay//MLL/WDR5 proliferation MV4:11 Qualified AC50
In short: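 IC50 comes from a dose-response fit of % inhibition relative to DMSO controls, with viable cells measured by CellTiter-Glo luminescence. Compounds were tested over 12 points (1:3, starting at 50 μM final) on MV4-11 cells plated at 300/well and grown 6 days.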

IC50 (WDR5) | AC50 [1] | SMILES | AC50 (MV4-11 cells)
< 10 nM | 10 to 1000 nM | CCOc1cc([C@H](C)N2CCc3c(cc(CCN(C)CC)cc3-c3cc(C)ncc3Cl)C2=O)ncc1C#N [Example 166, (S)-6-(1-(5-(5-chloro-2-methylpyridin-4-yl)-7-(2-(ethyl(methyl)amino)ethyl)-1-oxo-3,4-dihydroisoquinolin-2(1H)-yl)ethyl)-4-ethoxynicotinonitrile] | 10 to 1000 nM
10 to 1000 nM | 10 to 1000 nM | CNc1nccn1Cc1cc2c(c(-c3cc(CO)cnc3Cl)c1)CCN(Cc1ccc(F)c(F)c1)C2=O [Example 70, 5-(2-chloro-5-(hydroxymethyl)pyridin-3-yl)-2-(3,4-difluorobenzyl)-7-((2-(methylamino)-1H-imidazol-1-yl)methyl)-3,4-dihydroisoquinolin-1(2H)-one] | 10 to 1000 nM
< 10 nM | 10 to 1000 nM | CCOc1cc([C@H](C)N2CCc3c(cc(CCN(C)CC)cc3-c3cn(CC)c(=O)cc3C)C2=O)ncc1C#N [Example 171, (S)-4-ethoxy-6-(1-(7-(2-(ethyl(methyl)amino)ethyl)-5-(1-ethyl-4-methyl-6-oxo-1,6-dihydropyridin-3-yl)-1-oxo-3,4-dihydroisoquinolin-2(1H)-yl)ethyl)nicotinonitrile] | 10 to 1000 nM
10 to 1000 nM | 10 to 1000 nM | CNc1nccn1Cc1cc2c(c(-c3cc(CO)cnc3Cl)c1)CCN(Cc1ccc(F)c(C#N)c1)C2=O [Example 69, 5-((5-(2-chloro-5-(hydroxymethyl)pyridin-3-yl)-7-((2-(methylamino)-1H-imidazol-1-yl)methyl)-1-oxo-3,4-dihydroisoquinolin-2(1H)-yl)methyl)-2-fluorobenzonitrile] | 10 to 1000 nM
< 10 nM | 10 to 1000 nM | CNc1nccn1Cc1cc2c(c(-c3cc([C@H](C)O)cnc3Cl)c1)CCN(Cc1ccc(F)c(OC)c1)C2=O (single isomer, unassigned) [Example 76] | 10 to 1000 nM
< 10 nM | 10 to 1000 nM | CNc1nccn1Cc1cc(CN2CCOCC2)c2c(c1)C(=O)N([C@@H](C)c1cnc(F)c(OC)c1)CC2 [Example 8, (S)-2-(1-(6-fluoro-5-methoxypyridin-3-yl)ethyl)-7-((2-(methylamino)-1H-imidazol-1-yl)methyl)-5-(morpholinomethyl)-3,4-dihydroisoquinolin-1(2H)-one] | 10 to 1000 nM
< 10 nM | 10 to 1000 nM | CNc1nccn1Cc1cc(-c2cc(CO)cnc2Cl)c2ccn(Cc3cccc(OC(F)F)c3)c(=O)c2c1 [Example 98, 5-(2-chloro-5-(hydroxymethyl)pyridin-3-yl)-2-(3-(difluoromethoxy)benzyl)-7-((2-(methylamino)-1H-imidazol-1-yl)methyl)isoquinolin-1(2H)-one] | 10 to 1000 nM
10 to 1000 nM | 10 to 1000 nM | CNc1nccn1Cc1cc2c(c(-c3cn(C)nc3C)c1)CCN([C@H](C)c1cc(OC)c(F)cn1)C2=O [Example 71, (R)-5-(1,3-dimethyl-1H-pyrazol-4-yl)-2-(1-(5-fluoro-4-methoxypyridin-2-yl)ethyl)-7-((2-(methylamino)-1H-imidazol-1-yl)methyl)-3,4-dihydroisoquinolin-1(2H)-one] | 10 to 1000 nM
< 10 nM | 10 to 1000 nM | CCOc1cc(CN2CCc3c(cc(CCN(C)CC)cc3-c3cn(C)c(=O)cc3C)C2=O)ncc1C#N [Example 135, 6-((5-(1,4-dimethyl-6-oxo-1,6-dihydropyridin-3-yl)-7-(2-(ethyl(methyl)amino)ethyl)-1-oxo-3,4-dihydroisoquinolin-2(1H)-yl)methyl)-4-ethoxynicotinonitrile] | 10 to 1000 nM
< 10 nM | 10 to 1000 nM | CCOc1cc([C@H](C)N2CCc3c(cc(CCN(C)CC)cc3-c3cc(OC)ncc3C)C2=O)ncc1C#N [Example 188, (S)-4-ethoxy-6-(1-(7-(2-(ethyl(methyl)amino)ethyl)-5-(2-methoxy-5-methylpyridin-4-yl)-1-oxo-3,4-dihydroisoquinolin-2(1H)-yl)ethyl)nicotinonitrile] | 10 to 1000 nM
10 to 1000 nM | 10 to 1000 nM | CCOc1cc(CN2CCc3c(cc(CCN(C)CC)cc3-c3cc(C)cnc3C(F)F)C2=O)ncc1C#N [Example 144, 6-((5-(2-(difluoromethyl)-5-methylpyridin-3-yl)-7-(2-(ethyl(methyl)amino)ethyl)-1-oxo-3,4-dihydroisoquinolin-2(1H)-yl)methyl)-4-ethoxynicotinonitrile] | 10 to 1000 nM
10 to 1000 nM | 10 to 1000 nM | CCOc1cc([C@H](C)N2CCc3c(CN(C)C4CC4)cc(Cn4ccnc4NC)cc3C2=O)ncc1Cl [Example 22, (S)-2-(1-(5-chloro-4-ethoxypyridin-2-yl)ethyl)-5-((cyclopropyl(methyl)amino)methyl)-7-((2-(methylamino)-1H-imidazol-1-yl)methyl)-3,4-dihydroisoquinolin-1(2H)-one] | 10 to 1000 nM
10 to 1000 nM | 10 to 1000 nM | CCOc1cc(CN2CCc3c(Br)cc(Cn4ccnc4NC)cc3C2=O)cnc1C#N [Example 2, 5-((5-bromo-7-((2-(methylamino)-1H-imidazol-1-yl)methyl)-1-oxo-3,4-dihydroisoquinolin-2(1H)-yl)methyl)-3-ethoxypicolinonitrile] | 10 to 1000 nM
< 10 nM | 10 to 1000 nM | CCOc1cc([C@H](C)N2CCc3c(CN4CC[C@H](F)C4)cc(Cn4ccnc4NC)cc3C2=O)ncc1C#N [Example 9, 4-ethoxy-6-((S)-1-(5-(((S)-3-fluoropyrrolidin-1-yl)methyl)-7-((2-(methylamino)-1H-imidazol-1-yl)methyl)-1-oxo-3,4-dihydroisoquinolin-2(1H)-yl)ethyl)nicotinonitrile] | 10 to 1000 nM
< 10 nM | 10 to 1000 nM | CCOc1cc([C@H](C)N2CCc3c(cc(CCN(C)CC)cc3-c3c(OC)ccnc3C)C2=O)ncc1C#N [Example 191, 4-ethoxy-6-((1S)-1-(7-(2-(ethyl(methyl)amino)ethyl)-5-(4-methoxy-2-methylpyridin-3-yl)-1-oxo-3,4-dihydroisoquinolin-2(1H)-yl)ethyl)nicotinonitrile] | 10 to 1000 nM
10 to 1000 nM | 10 to 1000 nM | CCOc1cc([C@H](C)N2CCc3c(CN(C)C4CC4)cc(Cn4ccnc4NC)cc3C2=O)ncc1C#N [Example 18, (S)-6-(1-(5-((cyclopropyl(methyl)amino)methyl)-7-((2-(methylamino)-1H-imidazol-1-yl)methyl)-1-oxo-3,4-dihydroisoquinolin-2(1H)-yl)ethyl)-4-ethoxynicotinonitrile] | 10 to 1000 nM
10 to 1000 nM | 10 to 1000 nM | CCOc1cc([C@H](C)N2CCc3c(CN(C)C)cc(Cn4ccnc4NC)cc3C2=O)ncc1C#N [Example 50, (S)-6-(1-(5-((dimethylamino)methyl)-7-((2-(methylamino)-1H-imidazol-1-yl)methyl)-1-oxo-3,4-dihydroisoquinolin-2(1H)-yl)ethyl)-4-ethoxynicotinonitrile] | 10 to 1000 nM
10 to 1000 nM | 10 to 1000 nM | CCOc1cc(CN2CCc3c(cc(Cn4ccnc4NC)cc3C3CC3)C2=O)cnc1C#N [Example 84, 5-((5-cyclopropyl-7-((2-(methylamino)-1H-imidazol-1-yl)methyl)-1-oxo-3,4-dihydroisoquinolin-2(1H)-yl)methyl)-3-ethoxypicolinonitrile] | 10 to 1000 nM
10 to 1000 nM | 10 to 1000 nM | CCOc1cc([C@H](C)N2CCc3c(cc(Cn4ccnc4NC)cc3C3CC3)C2=O)ncc1F [Example 81, (S)-5-cyclopropyl-2-(1-(4-ethoxy-5-fluoropyridin-2-yl)ethyl)-7-((2-(methylamino)-1H-imidazol-1-yl)methyl)-3,4-dihydroisoquinolin-1(2H)-one] | 10 to 1000 nM
10 to 1000 nM | 10 to 1000 nM | CNc1nccn1Cc1cc(-c2cc(CO)cnc2Cl)c2ccn(Cc3cccc(OC)c3)c(=O)c2c1 [Example 100, 5-(2-chloro-5-(hydroxymethyl)pyridin-3-yl)-2-(3-methoxybenzyl)-7-((2-(methylamino)-1H-imidazol-1-yl)methyl)isoquinolin-1(2H)-one] | 10 to 1000 nM
10 to 1000 nM | 10 to 1000 nM | CCOc1cc([C@H](C)N2CCc3c(cc(CCN(C)CCF)cc3-c3ccc(F)nc3C)C2=O)ncc1C#N [Example 247] | 10 to 1000 nM
10 to 1000 nM | 10 to 1000 nM | CCOc1cc(CN2CCc3c(cc(CCN(C)CC)cc3C(OC)C(F)(F)F)C2=O)ncc1C#N (stereo not drawn) [Example 305, 4-ethoxy-6-((7-(2-(ethyl(methyl)amino)ethyl)-1-oxo-5-(2,2,2-trifluoro-1-methoxyethyl)-3,4-dihydroisoquinolin-2(1H)-yl)methyl)nicotinonitrile] | 10 to 1000 nM
10 to 1000 nM | 10 to 1000 nM | CCOc1cc([C@H](C)N2CCc3c(Cl)cc(Cn4ccnc4NC)cc3C2=O)ncc1F [Example 5, (S)-5-chloro-2-(1-(4-ethoxy-5-fluoropyridin-2-yl)ethyl)-7-((2-(methylamino)-1H-imidazol-1-yl)methyl)-3,4-dihydroisoquinolin-1(2H)-one] | 10 to 1000 nM
